Where no end group is shown, it is not given here.
Tested on: vTreg53 Treg cells
Assay: Proliferation and activation of primary vTreg53 TCR-tg Treg cells in vitro
Assay type: cell-based, mouse
Conditions: 3 days; for proliferation: compared with no peptide / other SPs; for potency on primary vTreg53 Treg cells: in vitro
Source text: Figure 4. SPs induce proliferation and activation of vTreg53 Treg cells in vitro and in vivo. (A–D) Proliferation and activation of vTreg53 Treg cells by different concentrations of SPs for 3 days in vitro (n = 3). (A) Representative flow cytometric plot of cell division. (B) Summary of cell proliferation. (C) Mean flourescence intensity (MFI) of CD44 staining in clonotype^+ Treg cells. (D) MFI of CD62L staining in clonotype^+ Treg cells. (E) Proliferation of transferred CD45.2^+ vTreg53 Treg cells in the spleen of CD45.1^+ B6 recipient mice immunized s.c. with CFA or CFA/Fat1562 at day 3 (n = 3). (F) Expansion of transferred CD45.2^+ vTreg53 Treg cells in the Spl/LNs or VAT of CD45.1^+ B6 recipient mice that were primed with CFA/fat1562 s.c. and boosted with IFA/Fat1562 i.p. (n ≥ 3). Data are mean ± SD. Data shown are representative of at least two independent experiments. Figure 4—figure supplement 1. Single cell TCR sequencing (scTCR-seq) analyses of fat1562-reactive endogenous Treg cells following immunization. (A) Scheme of the experiment. (B) Flow cytometric analysis of fat1562/A^b -PE tetramer+ Treg cells in Spl/LNs (enriched by anti-PE beads) or VAT (not enriched) of mice immunized with adjuvant alone or adjuvant/fat1562. Plot is a representative of mice that did show detectable expansion of tetramer+ Tregs. (C) Numbers of fat1562/A^b -PE tetramer+ Treg cells in Spl/LNs or VAT of mice immunized with adjuvant alone or adjuvant/fat1562 (D) Summary of the frequency and CDR3 sequences of expanded fat1562/A^b -PE tetramer+ Treg clones. [drawing 5] TEXT PRINTED IN THE PICTURE: (A) Fat7: 51 (1μM); 32.1 (0.1μM); 16.4 (0.01μM) | (A) Fat15: 59.7 (1μM); 54.4 (0.1μM); 37.1 (0.01μM) | (A) Fat1562: 61.6 (1μM); 57.6 (0.1μM); 51.8 (0.01μM) | (A) Fat2564: 44.2 (1μM); 32.5 (0.1μM); 19.3 (0.01μM) | (E) CFA: 9.6 | (E) CFA/Fat1562: 76.8 | (F) adjuvant: 0.1 (Spl/LN); 1.5 (VAT) | (F) adjuvant/Fat1562: 0.7 (Spl/LN); 38.1 (VAT) DOUBTS OF THE COPYIST ABOUT THIS PICTURE: Panels A, E, F: the gate numbers in the flow cytometry plots are printed without a measure or unit; they are copied as bare numbers. / Panel A: the row 'no peptide' (15.7, 17.1, 17.2) is a control without a substance and was left out. / Panel A, Fat1562, 1μM: the number is crossed by the histogram line; 61.6 is the best reading. / Panel E, CFA/Fat1562: the number is crossed by the histogram line; 76.8 is the best reading.
Tregs from pooled LNs of Tg^+ Foxp3-GFP^KI/y mice were labeled with CellTrace Violet dye (ThermoFisher Scientific), cultured in complete RPMI medium in the presence of 100 U/ml recombinant mouse IL-2 (peprotech), and stimulated by syngeneic APCs loaded with the indicated concentrations of different peptides. 3 days later, the proliferation and activation of clonotype^+ Treg cells was determined by flow cytometric analysis of the dilution of the CellTrace Violet dye, upregulation of CD44 expression, and downregulation of CD62L levels.

Row | Sequence | CD44 up-regulation (0.01 µM, compared with no peptide) | proliferation (0.01 µM) | CD62L down-regulation (1 µM, n = 3) | potency on primary vTreg53 Treg cells | CD62L down-regulation (0.01 µM)
1 | LMFKGPHAVQAVG [Fat7] | unable to promote any further proliferation and up-regulation of CD44 expression | unable to promote any further proliferation | dampened CD62L levels only moderately |  | 
2 | TMYKNLRPWAATG [Fat2564] |  |  |  | relatively weak potency, which was comparable with that of Fat7 | 
3 | TMYKNPRPMAATG [Fat1562] |  | strongest proliferation | strongest down-regulation of CD62L | consistently the strongest SP | strongest proliferation and down-regulation of CD62L

— article PMC7440915, “Discovery of surrogate agonists for visceral fat Treg cells that modulate metabolic indices in vivo” (eLife, 2020)
